In US8859620B2, “Phthalanilate compounds and methods of use” (University of Notre Dame du Lac, priority 2009, dated 2014):
Converted amounts (≈) assume the structure as drawn.

Key:
[1] = target: P99 (class C β-lactamase) (Enterobacter cloacae, UniProt P05364); test: β-Lactamase assay (nitrocefin colour change), P99; format: biochemical; conditions: for P99: Table 10, class symbols x/xx/xxx, key not given; for IC50: nitrocefin 100 μM, 10 nM enzyme, 5 min pre-incubation, read-out: IC50s P99
Experimental: (§1) β-Lactamase Assays (TEM-1, P99, and OXA-10): The activity of the compounds of the invention (inhibitors) toward β-lactamases was evaluated using 96 well plates. The reaction mixture included 10 mM sodium phosphate, pH 7.0, 150 mM sodium chloride, 0.01% Triton X-100, 100 μM nitrocefin, 10 nM of β-lactamases (class A: TEM-1; class C: P99, or class D: OXA-10), and variable concentrations of the inhibitors in a total volume of 100 μL. β-Lactamases were pre-incubated with the compounds at room temperature for 5 minutes, and the assay was initiated by the addition of nitrocefin. The inhibition of the enzyme activity by the compounds was determined by monitoring color change (from yellow to red) of nitrocefin after 20 minutes. Stock solutions of the compounds were prepared in dimethyl sulfoxide (DMSO). No more than 5% DMSO was present in assays, unless noted otherwise. B1aR Assay: The surface domain of B1aR (1 μM) was added to each inhibitor (at various concentrations) in 100 mM sodium phosphate, 50 mM sodium bicarbonate, at pH 7.0. The reaction mixtures were incubated at room temperature for 20 minutes. BOCILLIN FL, a fluorogenic ligand, was added to a concentration of 20 μM in a final volume of 20 μL. The mixtures were incubated at 37° C. for 5 minutes, at which point the reactions were quenched by the addition of 15 μL of the SDS sample buffer (125 mM Tris, 4% SDS, 20% glycerol, 2% 2-mercaptoethanol, pH 6.8), and were boiled for 4 minutes. The samples were loaded onto 15% SDS-PAGE, the gel was developed and scanned using a Storm 840® Fluorimager. The fluorescent bands of BOCILLIN FL-labeled B1aR^S were analyzed by Image Quant 5.2 software. PBP2 Assay: The PBP2 assay was performed according to the methods of Villegas-Esterada et al. (J. Am. Chem. Soc. 2008, 130, 9212-9213).

PBP2a = PBP2a (Staphylococcus aureus, UniProt P07944); test: PBP2 assay (Villegas-Esterada et al.); format: biochemical; conditions: Table 10
Experimental: as §1

S. aureus NRS11 (Mec^S) = test: MIC against S. aureus NRS11 (Table 13); format: cell-based, Staphylococcus aureus; conditions: for MIC: Staphylococcus aureus, compounds dissolved in DMSO or 1% sodium carbonate, read-out: MIC; for inhibitory properties (in words): Table 13
Experimental: All recited compounds were dissolved in DMSO or in 1% sodium carbonate and transferred to micro titer plates to final concentrations of 1000 μg/mL.

[2] = target: TEM-1 (class A β-lactamase) (Escherichia coli, UniProt P62593); test: β-Lactamase assay (nitrocefin colour change), TEM-1; format: biochemical; conditions: for TEM-1: Table 10, class symbols x/xx/xxx, key not given
Experimental: as §1

S. aureus NRS100 (Mec^R) = test: MIC against S. aureus NRS100 (Table 14); format: cell-based, Staphylococcus aureus; conditions: for MIC: Staphylococcus aureus, compounds dissolved in DMSO or 1% sodium carbonate, read-out: MIC; for inhibitory activity (in words): Table 14
Experimental: The recited compounds were dissolved in DMSO or in 1% sodium carbonate and transferred into micro titer plate to final concentration of 1000 μg/mL.

[3] = system: methicillin-resistant strains of S. aureus; test: MIC against methicillin-resistant S. aureus (Table 15); format: cell-based; conditions: Staphylococcus aureus, dissolved in 100% DMSO, diluted into Mueller Hinton II Broth to final 16 μg/mL
Description: Table 15 illustrates the inhibition of methicillin-resistant strains of S. aureus by selected compounds of the invention.

[4] = target: OXA-10 (class D β-lactamase) (Pseudomonas aeruginosa, UniProt P14489); test: β-Lactamase assay (nitrocefin colour change), OXA-10; format: biochemical; conditions: for OXA-10: Table 10, class symbols x/xx/xxx, key not given; for IC50: nitrocefin 100 μM, 10 nM enzyme, 5 min pre-incubation, read-out: IC50s OXA-10
Experimental: as §1

surface domain of B1aR = surface domain of B1aR (Staphylococcus aureus, UniProt P18357); test: B1aR assay (BOCILLIN FL labeling, SDS-PAGE); format: binding, Staphylococcus aureus (MRSA); conditions: Table 10; class symbols x/xx/xxx, key not given
Experimental: as §1

Sequence of OXA-10 (class D β-lactamase) (P14489 20-266, species assumed): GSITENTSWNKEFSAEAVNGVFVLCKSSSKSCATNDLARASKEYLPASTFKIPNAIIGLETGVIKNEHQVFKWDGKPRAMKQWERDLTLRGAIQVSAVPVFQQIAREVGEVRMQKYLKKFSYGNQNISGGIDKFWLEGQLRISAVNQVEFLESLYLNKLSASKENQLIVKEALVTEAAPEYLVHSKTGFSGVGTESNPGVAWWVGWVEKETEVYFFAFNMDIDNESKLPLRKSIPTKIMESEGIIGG
Sequence of surface domain of B1aR (P18357 331-585): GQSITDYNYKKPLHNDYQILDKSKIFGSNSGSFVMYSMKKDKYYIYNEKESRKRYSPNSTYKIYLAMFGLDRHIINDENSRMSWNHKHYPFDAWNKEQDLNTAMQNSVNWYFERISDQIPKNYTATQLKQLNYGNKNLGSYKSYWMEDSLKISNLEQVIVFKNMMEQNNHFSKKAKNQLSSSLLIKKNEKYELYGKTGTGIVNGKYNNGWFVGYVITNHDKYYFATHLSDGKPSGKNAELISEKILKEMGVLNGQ
Sequence of TEM-1 (class A β-lactamase) (P62593 24-286 limits assumed): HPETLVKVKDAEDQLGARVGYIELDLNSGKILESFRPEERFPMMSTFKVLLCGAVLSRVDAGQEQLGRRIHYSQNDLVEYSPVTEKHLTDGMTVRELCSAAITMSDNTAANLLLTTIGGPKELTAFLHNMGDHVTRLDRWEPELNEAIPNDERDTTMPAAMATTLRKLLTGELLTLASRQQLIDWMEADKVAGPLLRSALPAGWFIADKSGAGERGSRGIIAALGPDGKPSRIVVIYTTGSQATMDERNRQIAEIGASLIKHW
Sequence of P99 (class C β-lactamase) (P05364 21-381): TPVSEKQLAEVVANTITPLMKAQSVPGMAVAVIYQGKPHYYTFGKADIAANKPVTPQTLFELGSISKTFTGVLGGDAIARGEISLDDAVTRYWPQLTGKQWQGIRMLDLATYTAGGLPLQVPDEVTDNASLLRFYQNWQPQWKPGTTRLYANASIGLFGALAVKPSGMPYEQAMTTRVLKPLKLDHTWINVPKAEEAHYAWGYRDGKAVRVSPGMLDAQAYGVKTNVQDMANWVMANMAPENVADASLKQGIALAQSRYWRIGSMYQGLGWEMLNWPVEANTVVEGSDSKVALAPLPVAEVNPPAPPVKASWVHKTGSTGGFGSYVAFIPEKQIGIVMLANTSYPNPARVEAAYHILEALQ
Sequence of PBP2a (P07944 whole entry): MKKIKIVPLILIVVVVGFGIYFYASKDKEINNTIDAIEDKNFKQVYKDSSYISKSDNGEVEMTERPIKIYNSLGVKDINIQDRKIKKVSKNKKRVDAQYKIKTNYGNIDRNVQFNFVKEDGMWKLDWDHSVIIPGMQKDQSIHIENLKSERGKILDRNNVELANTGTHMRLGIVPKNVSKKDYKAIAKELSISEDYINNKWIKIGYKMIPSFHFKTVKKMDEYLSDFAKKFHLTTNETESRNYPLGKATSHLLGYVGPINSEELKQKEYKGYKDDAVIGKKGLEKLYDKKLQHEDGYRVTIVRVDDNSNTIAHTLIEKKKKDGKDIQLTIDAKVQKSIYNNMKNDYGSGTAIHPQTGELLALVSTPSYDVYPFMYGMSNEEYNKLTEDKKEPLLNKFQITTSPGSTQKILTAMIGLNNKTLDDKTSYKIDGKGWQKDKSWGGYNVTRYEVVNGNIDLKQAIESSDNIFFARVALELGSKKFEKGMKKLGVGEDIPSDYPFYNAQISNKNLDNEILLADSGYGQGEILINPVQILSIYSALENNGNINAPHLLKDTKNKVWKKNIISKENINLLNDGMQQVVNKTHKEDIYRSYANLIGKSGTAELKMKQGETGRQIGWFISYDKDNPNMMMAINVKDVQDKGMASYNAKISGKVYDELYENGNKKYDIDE

| Compound | P99 [1] | IC50 [1] | PBP2a* (inhibitory concentration) (PBP2a) | MIC (S. aureus NRS11 (Mec^S)) | IC50 [2] | TEM-1 [2] | MIC (S. aureus NRS100 (Mec^R)) | inhibitory activity (in words) (S. aureus NRS100 (Mec^R)) | MIC [3] | OXA-10 [4] | IC50 [4] | BlaR (surface domain of B1aR) | inhibitory properties (in words) (S. aureus NRS11 (Mec^S)) |
| --- | --- | --- | --- | --- | --- | --- | --- | --- | --- | --- | --- | --- | --- |
| O=C(O)c1c(Br)c(Br)c(Br)c(Br)c1C(=O)Nc1ccc(OCc2cccc(C(F)(F)F)c2)c(Cl)c1 [Compound 390] | xxx | 6 ± 0.8 µM | xxx | < 8 µg/mL | 1.9 ± 0.1 µM | xxx | < 8 µg/mL | significant inhibitory activity | 8 µg/mL (≈ 10.5 µM) | xxx | 14.2 ± 1.1 µM |  |  |
| Cc1ccccc1COc1ccc(NC(=O)c2c(Br)c(Br)c(Br)c(Br)c2C(=O)O)cc1Cl [Compound 386] | xxx | 15.3 ± 1.6 µM | xxx |  | 7.4 ± 1.2 µM | xxx | 8 µg/mL (≈ 11.2 µM) |  | 16 µg/mL (≈ 22.5 µM) | xxx | 31.6 ± 3.5 µM | xxx |  |
| CC(Oc1ccc(NC(=O)c2c(Br)c(Br)c(Br)c(Br)c2C(=O)O)cc1Cl)c1ccccc1 (stereo not drawn) [Compound 382] | xxx | 24.4 ± 1.9 µM | xxx | < 8 µg/mL | 5.3 ± 1.1 µM | xxx | < 8 µg/mL | significant inhibitory activity |  | xxx | 26.6 ± 1.6 µM |  |  |
| CCCCCCCCCCCCCCCCOc1ccc(NC(=O)c2c(Cl)c(Cl)c(Cl)c(Cl)c2C(=O)O)cc1 [Compound 290] | xxx | 0.4 ± 0.06 µM |  |  | 0.6 ± 0.06 µM |  |  |  |  | xxx | 0.5 ± 0.05 µM | xxx |  |
| O=C(O)c1c(Br)c(Br)c(Br)c(Br)c1C(=O)Nc1ccc(Oc2cc(C(F)(F)F)cc(C(F)(F)F)c2)cc1 [Compound 414] | xxx | 12 ± 0.5 µM | xxx |  | 4.5 ± 0.4 µM | xxx | 4 µg/mL (≈ 5.1 µM) |  | 4 µg/mL (≈ 5.1 µM) | xxx | 19.5 ± 2 µM | xxx |  |
| O=C(O)c1c(F)c(F)c(F)c(F)c1C(=O)Nc1ccc(OCc2cccc(OC(F)(F)F)c2)c(Cl)c1 [Compound 418] |  |  |  |  |  |  | 125 µg/mL (≈ 232 µM) |  |  | xx |  | xxx |  |
| O=C(O)c1ccc([N+](=O)[O-])cc1C(=O)Nc1ccc(OCc2cccc(OC(F)(F)F)c2)c(Cl)c1 [Compound 422] | xx |  | xxx |  |  | xx | 125 µg/mL (≈ 245 µM) |  |  | xx |  | xxx |  |
| CCCCCCCCCCCCCCCCOc1ccc(NC(=O)c2c(F)c(F)c(F)c(F)c2C(=O)O)cc1 [Compound 289] | xx | 1.2 ± 0.1 µM |  |  | 23.1 ± 2.4 µM |  |  |  |  | xxx | 0.7 ± 0.15 µM | xxx |  |
| O=C(O)c1ccccc1C(=O)Nc1ccc(OCc2cccc(OC(F)(F)F)c2)c(Cl)c1 [Compound 417] |  |  |  |  |  |  | 250 µg/mL (≈ 537 µM) |  |  |  |  | xx |  |
| O=C(O)c1ccccc1C(=O)Nc1ccc(OCc2cccc(C(F)(F)F)c2)c(Cl)c1 [Compound 387] |  |  |  |  |  |  |  |  |  |  |  | xx |  |
| CCCCCCCCCCCCCCCCOc1ccc(NC(=O)c2c(Br)c(Br)c(Br)c(Br)c2C(=O)O)cc1 [Compound 291] | xxx | 0.2 ± 0.02 µM |  |  | 0.2 ± 0.04 µM | xxx |  |  |  | xxx | 0.3 ± 0.06 µM | xx |  |
| CCCCCCCCOc1ccc(NC(=O)c2c(Br)c(Br)c(Br)c(Br)c2C(=O)O)cn1 [Compound 346] | xxx | 7.8 ± 1.2 µM |  | < 8 µg/mL | 2.8 ± 0.3 µM | xxx | < 8 µg/mL | significant inhibitory activity | 8 µg/mL (≈ 11.7 µM) | xxx | 13.1 ± 0.8 µM |  | significant inhibitory properties |
| CCCCCCCCOc1ccc(NC(=O)c2c(Cl)c(Cl)c(Cl)c(Cl)c2C(=O)O)cc1Cl [Compound 302] |  |  |  |  |  |  | 4 µg/mL (≈ 7.38 µM) |  | 4 µg/mL (≈ 7.38 µM) |  |  |  |  |
| O=C(O)c1c(Br)c(Br)c(Br)c(Br)c1C(=O)Nc1ccc(Oc2ccccc2)cc1 [Compound 222] |  |  | xx |  |  |  |  |  |  |  |  |  |  |
| O=C(O)c1c(F)c(F)c(F)c(F)c1C(=O)Nc1ccc(Oc2cc(C(F)(F)F)cc(C(F)(F)F)c2)cc1 [Compound 412] |  |  |  |  |  |  |  |  |  |  |  | xx |  |
| CCCCCCCCOc1ccc(NC(=O)c2ccccc2C(=O)O)cc1Cl [Compound 300] | xx | 10.3 ± 0.4 µM | xxx |  | 0.7 ± 0.08 µM | xxx | 8 µg/mL (≈ 19.8 µM) |  | 16 µg/mL (≈ 39.6 µM) | xx | 30.7 ± 2.8 µM |  |  |
| CCCCCCCCCCOc1ccc(N(C)C(=O)c2c(F)c(F)c(F)c(F)c2C(=O)O)cc1 [Compound 319] |  |  |  |  |  |  |  |  |  |  |  | xxx |  |
| CCCCCCCCCCOc1ccc(NC(=O)c2c(Br)c(Br)c(Br)c(Br)c2C(=O)O)cc1 [Compound 329] |  |  |  |  |  |  |  |  |  |  |  | xxx |  |
| CCC(CO)NC(=O)C1=C(C(=O)O)SCCS1 (stereo not drawn) [Compound 126] |  |  | xx |  |  |  |  |  |  |  |  |  |  |
| CCCCCCCCOc1ccc(NC(=O)c2ccccc2C(=O)O)cc1 [Compound 270] | xxx |  |  |  |  | xxx |  |  |  | xxx |  | xx |  |
| CCCCCCCCCCOc1ccc(N(C)C(=O)c2c(Br)c(Br)c(Br)c(Br)c2C(=O)O)cc1 [Compound 316] |  |  |  |  |  |  |  |  |  |  |  | xx |  |
| CCCCCCCCOc1ccc(NC(=O)c2c(Br)c(Br)c(Br)c(Br)c2C(=O)O)cc1Cl [Compound 303] |  |  |  |  |  |  | 4 µg/mL (≈ 5.56 µM) |  | 4 µg/mL (≈ 5.56 µM) |  |  | xx |  |
| CCCCCCCCCCOc1ccc(N(C)C(=O)c2ccccc2C(=O)O)cc1 [Compound 318] |  |  |  |  |  |  |  |  |  |  |  | xxx |  |
| CCCCCCCCOc1ccc(NC(=O)c2c(Cl)c(Cl)c(Cl)c(Cl)c2C(=O)O)cn1 [Compound 345] | xxx | 27.8 ± 2.9 µM |  | 16 µg/mL (≈ 31.5 µM) | 4.9 ± 0.2 µM | xxx | 16 µg/mL (≈ 31.5 µM) | significant inhibitory activity | 16 µg/mL (≈ 31.5 µM) | xxx | 37.9 ± 6 µM |  | significant inhibitory properties |
| Cc1ccccc1COc1ccc(NC(=O)c2c(Cl)c(Cl)c(Cl)c(Cl)c2C(=O)O)cc1Cl [Compound 385] | xx |  | xxx | 16 µg/mL (≈ 30 µM) |  | xx | 16 µg/mL (≈ 30 µM) | significant inhibitory activity |  | xxx |  |  | significant inhibitory properties |
| CCCCCCCCOc1ccc(NC(=O)c2c(F)c(F)c(F)c(F)c2C(=O)O)cc1 [Compound 271] | xxx |  |  |  |  | xxx |  |  |  | xxx |  | xxx |  |
| O=C(O)C1=C(C(=O)N[C@@H](CO)[C@@H](O)c2ccccc2)SCCS1 [Compound 127] |  |  | xx |  |  |  |  |  |  |  |  |  |  |
| CCCCCCCCOc1ccc(NC(=O)c2c(F)c(F)c(F)c(F)c2C(=O)O)cc1Cl [Compound 301] | xxx | 9.9 ± 1.7 µM | xxx |  | 5.1 ± 1 µM | xx | 16 µg/mL (≈ 33.6 µM) |  |  | xxx | 23 ± 2 µM | xxx |  |
| O=C(O)c1c(Cl)c(Cl)c(Cl)c(Cl)c1C(=O)Nc1ccc(Oc2cc(C(F)(F)F)cc(C(F)(F)F)c2)cc1 [Compound 413] | xxx | 31.2 ± 6.4 µM | xxx |  | 27 ± 2.9 µM | xxx | 8 µg/mL (≈ 13.2 µM) |  | 16 µg/mL (≈ 26.4 µM) | xxx | 80.8 ± 7 µM |  |  |
